Assay results reported in US20080214456A1, “Lkktet and/or Lkktnt Peptide Compositions and Methods” (REGENERX BIOPHARMACEUTICALS, INC., priority 2005, published 2008).

Columns and labels:
[1] = tested on: Human corneal epithelial cells; test: BrdU incorporation cell proliferation assay in BAK-exposed corneal epithelial cells; assay type: cell-based
Description: (§1) Human corneal epithelial cells at approximately 80% confluence were treated with 0%, 0.001%, 0.01%, or 0.1% BAK for 15 minutes. After 3 and 24 hours of recovery in culture medium, cell proliferation was measured using a calorimetric BrdU incorporation assay. Apoptosis was measured using a calorimetric annexin-based cell death assay. […] To further assess the ability of Tb4 to prevent apoptosis, corneal epithelial cells were treated with 0.01% BAK±Tβ4 over a 5 day time course.

[2] = tested on: Human corneal epithelial cells; test: annexin-based cell death (apoptosis) assay in BAK-exposed corneal epithelial cells
Description: as §1

[3] = 1 mcg/ml Tβ4, BAK-treated cells, 3 and 24 hour time points
[4] = 0.001%, 0.01% or 0.1% BAK for 15 minutes, 3 and 24 hours recovery

Substance	cell proliferation of BAK-treated cells in presence of Tβ4 [1, 3]	BAK-initiated epithelial cell apoptosis ([2]; 0.01% BAK ± Tβ4, longer times in culture (2 to 5 days))	apoptosis of BAK-treated cells in presence of Tβ4 [2, 3]	apoptosis compared to cells cultured in medium alone ([2]; 5 days in culture, no BAK comparison (medium alone))	corneal epithelial cell proliferation compared to control [1, 4]	apoptosis compared to control [2, 4]
Thymosin beta 4 (SDKPDMAEIEKFDKSKLKKTETQEKNPLPSKETIEQEKQAGES; Thymosin beta-4; UniProt P62328 2-44, looked up) [Tβ4]	not promoted	significantly inhibited	not inhibited	decreased apoptosis	–	–
benzalkonium chloride [BAK, reference compound]	–	–	–	–	inhibited	increased
